In the supplement of paper PMC13380429:

How the values were obtained:
U2OS [1] = test: drug sensitivity score (DSS) for viability; higher = more toxic; extreme values may be limits of the assay; details: 72 h
Calu-3 [2] = test: as above; details: 72 h
Caco-2 [3] = test: as above; details: 72 h
HepG2 [4] = test: as above; details: 72 h
Vero E6 [5] = test: as above; details: 72 h
[6] = test system: A549-ACE2 infected with SARS-CoV-2; test: SARS-CoV-2 infection rate relative to DMSO; higher = more infection; details: 24 h
[7] = test system: A549-ACE2 infected with SARS-CoV-2; test: cell count relative to DMSO; higher = less toxic; details: 24 h
[8] = test system: A549-ACE2 infected with SARS-CoV-2; test: morphology score (similarity to uninfected cells); higher = more like uninfected cells; details: 24 h
U2OS [9] = test: relative viability EC50 (midpoint between 100% and the lowest measured viability); higher = less toxic; details: 72 h
Calu-3 [10] = test: as above; details: 72 h
Caco-2 [11] = test: as above; details: 72 h
Vero E6 [12] = test: as above; details: 72 h
A549-ACE2 [13] = test: phospholipidosis EC50; higher = less potent phospholipidosis inducer
A549-ACE2 [14] = test: drug-induced phospholipidosis relative to tamoxifen; higher = more phospholipidosis
U2OS [15] = test: cell viability relative to DMSO; higher = less toxic; details: 72 h
Calu-3 [16] = test: as above; details: 72 h
Caco-2 [17] = test: as above; details: 72 h
HepG2 [18] = test: as above; details: 72 h
Vero E6 [19] = test: as above; details: 72 h
HepG2 [20] = test: relative viability EC50 (midpoint between 100% and the lowest measured viability); higher = less toxic; details: 72 h

CCn1c2ccccc2c2cc(CNC)ccc21 [PhiKan-083]
Details | drug sensitivity score | relative viability EC50 [nM]
Caco-2 [3] | 0 | –
Caco-2 [11] | – | > 10000
Calu-3 [2] | 0 | –
Calu-3 [10] | – | > 10000
HepG2 [4] | 1.5 | –
U2OS [1] | 0 | –
U2OS [9] | – | > 10000
Vero E6 [5] | 0 | –
Vero E6 [12] | – | > 10000

Details | SARS-CoV-2 infection rate [%] | cell count [%] | cell viability [%] | morphology score | phospholipidosis EC50 [nM]
A549-ACE2 [13], 24 h | – | – | – | – | 5190
A549-ACE2 [13], 48 h | – | – | – | – | 6250
A549-ACE2 [13], 72 h | – | – | – | – | 6910
Caco-2 [17], 1 nM | – | – | 102 | – | –
Caco-2 [17], 10 nM | – | – | 100 | – | –
Caco-2 [17], 100 nM | – | – | 102 | – | –
Caco-2 [17], 1000 nM | – | – | 105 | – | –
Caco-2 [17], 10000 nM | – | – | 108 | – | –
Calu-3 [16], 1 nM | – | – | 96.2 | – | –
Calu-3 [16], 10 nM | – | – | 99.9 | – | –
Calu-3 [16], 100 nM | – | – | 105 | – | –
Calu-3 [16], 1000 nM | – | – | 97.6 | – | –
Calu-3 [16], 10000 nM | – | – | 103 | – | –
HepG2 [18], 1 nM | – | – | 98.2 | – | –
HepG2 [18], 10 nM | – | – | 106 | – | –
HepG2 [18], 100 nM | – | – | 97.4 | – | –
HepG2 [18], 1000 nM | – | – | 99.3 | – | –
HepG2 [18], 10000 nM | – | – | 68.3 | – | –
U2OS [15], 1 nM | – | – | 99.4 | – | –
U2OS [15], 10 nM | – | – | 100 | – | –
U2OS [15], 100 nM | – | – | 99.2 | – | –
U2OS [15], 1000 nM | – | – | 99.7 | – | –
U2OS [15], 10000 nM | – | – | 98.8 | – | –
Vero E6 [19], 1 nM | – | – | 98.5 | – | –
Vero E6 [19], 10 nM | – | – | 103 | – | –
Vero E6 [19], 100 nM | – | – | 98.7 | – | –
Vero E6 [19], 1000 nM | – | – | 99.9 | – | –
Vero E6 [19], 10000 nM | – | – | 90.8 | – | –
[6], 0.3 µM | 94 | – | – | – | –
[6], 3 µM | 79 | – | – | – | –
[6], 10 µM | 51 | – | – | – | –
[6], 30 µM | 16 | – | – | – | –
[7], 0.3 µM | – | 103 | – | – | –
[7], 3 µM | – | 105 | – | – | –
[7], 10 µM | – | 117 | – | – | –
[7], 30 µM | – | 119 | – | – | –
[8], 0.3 µM | – | – | – | 0.23 | –
[8], 3 µM | – | – | – | 0.46 | –
[8], 10 µM | – | – | – | 0.75 | –
[8], 30 µM | – | – | – | 0.82 | –

drug-induced phospholipidosis [%], A549-ACE2 [14]
Details | 0.3 µM | 0.833333 µM | 3.33333 µM | 6.66667 µM | 10 µM | 30 µM
24 h | 2.5 | 2.35 | 26.5 | 64.2 | 83.4 | 97.2
48 h | 3.59 | 3.69 | 21.8 | 58.2 | 75.7 | 99.9
72 h | 3.02 | 2.71 | 17.3 | 49 | 70.8 | 95.9

COC(=O)C[C@](O)(CCCC(C)(C)O)C(=O)O[C@@H]1C(OC)=C[C@]23CCCN2CCc2cc4c(cc2[C@H]13)OCO4 [homoharringtonine]
Details | drug sensitivity score | relative viability EC50 [nM]
Caco-2 [3] | 18.6 | –
Caco-2 [11] | – | 99
Calu-3 [2] | 18.5 | –
Calu-3 [10] | – | 89.7
HepG2 [4] | 27 | –
HepG2 [20] | – | 49.7
U2OS [1] | 26.8 | –
U2OS [9] | – | 61.6
Vero E6 [5] | 18.2 | –
Vero E6 [12] | – | 273

Details | SARS-CoV-2 infection rate, [6] [%] | cell count, [7] [%] | cell viability, Caco-2 [17] [%] | cell viability, Calu-3 [16] [%] | cell viability, HepG2 [18] [%] | cell viability, U2OS [15] [%] | cell viability, Vero E6 [19] [%] | morphology score, [8]
1 nM | – | – | 99.3 | 93.4 | 98.4 | 104 | 92.4 | –
10 nM | – | – | 102 | 91.1 | 89.1 | 101 | 103 | –
100 nM | – | – | 61.8 | 60.1 | 29.4 | 23 | 82.1 | –
0.3 µM | 12 | 68 | – | – | – | – | – | 0.32
1000 nM | – | – | 24.7 | 27.3 | 6 | 6.6 | 12.8 | –
3 µM | 16 | 49 | – | – | – | – | – | 0.26
10 µM | 19 | 42 | – | – | – | – | – | 0.3
10000 nM | – | – | 27.9 | 22 | 1 | 0.3 | 0.5 | –
30 µM | 15 | 30 | – | – | – | – | – | 0.33

Details | drug-induced phospholipidosis [%]
A549-ACE2 [14], 0.3 µM, 24 h | -2.95

[O-][n+]1ccccc1[S-].[O-][n+]1ccccc1[S-].[Zn+2] [pyrithione-zinc]
Details | drug sensitivity score | relative viability EC50 [nM]
Caco-2 [3] | 19.5 | –
Caco-2 [11] | – | 137
Calu-3 [2] | 12 | –
Calu-3 [10] | – | 527
HepG2 [4] | 14.1 | –
HepG2 [20] | – | 640
U2OS [1] | 16.4 | –
U2OS [9] | – | 406
Vero E6 [5] | 12.8 | –
Vero E6 [12] | – | 748

Details | SARS-CoV-2 infection rate, [6] [%] | cell count, [7] [%] | cell viability, Caco-2 [17] [%] | cell viability, Calu-3 [16] [%] | cell viability, HepG2 [18] [%] | cell viability, U2OS [15] [%] | cell viability, Vero E6 [19] [%] | morphology score, [8]
1 nM | – | – | 91.4 | 102 | 97 | 102 | 98.8 | –
10 nM | – | – | 94.5 | 94.8 | 111 | 95.1 | 93.6 | –
100 nM | – | – | 69.8 | 94.6 | 102 | 97 | 94.4 | –
0.3 µM | 95 | 99 | – | – | – | – | – | 0.13
1000 nM | – | – | 13.4 | 40.6 | 24.6 | 10.8 | 40 | –
3 µM | 76 | 4 | – | – | – | – | – | 0.14
10000 nM | – | – | 22.9 | 18.8 | -0.1 | 1.3 | 0.1 | –

drug-induced phospholipidosis [%], A549-ACE2 [14]
Details | 24 h | 48 h | 72 h
0.3 µM | -3.98 | -0.06 | 2.15
0.833333 µM | 2.2 | – | –

COc1c(C)c2c(c(O)c1C/C=C(\C)CCC(=O)OCCN1CCOCC1)C(=O)OC2 [mycophenolate-mofetil]
Details | drug sensitivity score | relative viability EC50 [nM]
Caco-2 [3] | 5.6 | –
Calu-3 [2] | 4.2 | –
HepG2 [4] | 8.6 | –
HepG2 [20] | – | 938
U2OS [1] | 7.2 | –
U2OS [9] | – | 1440
Vero E6 [5] | 7.3 | –
Vero E6 [12] | – | 1250

Details | SARS-CoV-2 infection rate, [6] [%] | cell count, [7] [%] | cell viability, Caco-2 [17] [%] | cell viability, Calu-3 [16] [%] | cell viability, HepG2 [18] [%] | cell viability, U2OS [15] [%] | cell viability, Vero E6 [19] [%] | morphology score, [8]
1 nM | – | – | 94.2 | 89.2 | 103 | 96.5 | 99 | –
10 nM | – | – | 101 | 102 | 101 | 97.9 | 98.4 | –
100 nM | – | – | 106 | 94.4 | 112 | 87.8 | 99.1 | –
0.3 µM | 97 | 102 | – | – | – | – | – | 0.22
1000 nM | – | – | 76 | 85.1 | 61.6 | 73.5 | 75.1 | –
3 µM | 78 | 80 | – | – | – | – | – | 0.12
10 µM | 81 | 94 | – | – | – | – | – | 0.22
10000 nM | – | – | 51.3 | 53.1 | 29.2 | 22.8 | 31.3 | –
30 µM | 65 | 92 | – | – | – | – | – | 0.37

drug-induced phospholipidosis [%], A549-ACE2 [14]
Details | 0.3 µM | 0.833333 µM | 3.33333 µM | 6.66667 µM | 10 µM | 30 µM
24 h | -1.99 | -10.6 | -14.8 | -15.8 | -12.1 | -11.3
48 h | 0.05 | -8.58 | – | – | – | –
72 h | 1.31 | -1.93 | – | – | – | –

C(#Cc1nc2ncccc2nc1OCCN1CCCC1)c1ccccc1 [GK921]
Details | drug sensitivity score | relative viability EC50 [nM]
Caco-2 [3] | 5.4 | –
Caco-2 [11] | – | 3130
Calu-3 [2] | 6.4 | –
Calu-3 [10] | – | 2610
HepG2 [4] | 9.4 | –
HepG2 [20] | – | 1530
U2OS [1] | 9.7 | –
U2OS [9] | – | 1460
Vero E6 [5] | 5.3 | –
Vero E6 [12] | – | 3350

Details | SARS-CoV-2 infection rate, [6] [%] | cell count, [7] [%] | cell viability, Caco-2 [17] [%] | cell viability, Calu-3 [16] [%] | cell viability, HepG2 [18] [%] | cell viability, U2OS [15] [%] | cell viability, Vero E6 [19] [%] | morphology score, [8]
1 nM | – | – | 100 | 98.7 | 92.4 | 97.1 | 97.2 | –
10 nM | – | – | 98.2 | 90.9 | 99.3 | 95.7 | 97.6 | –
0.1 µM | 100 | 101 | – | – | – | – | – | 0.03
100 nM | – | – | 101 | 93.1 | 102 | 99.2 | 94.9 | –
0.3 µM | 102 | 102 | – | – | – | – | – | -0.05
1 µM | 101 | 95 | – | – | – | – | – | 0.02
1000 nM | – | – | 99.5 | 93.3 | 74.5 | 72.2 | 103 | –
3 µM | 53 | 86 | – | – | – | – | – | 0.48
10000 nM | – | – | 3.8 | 2.5 | -0.3 | -0.2 | 0 | –

drug-induced phospholipidosis [%], A549-ACE2 [14]
Details | 24 h | 48 h | 72 h
0.3 µM | 2.77 | 8.46 | 11.7
0.833333 µM | 6.24 | 5.53 | 2.54
